The values below come from publication PMC5296967, “Binding affinity of five PBPs to Ostrinia sex pheromones” (BMC Molecular Biology, 2017).

For one test, the target named is recombinant OfurPBP4 (Ostrinia furnacalis, UniProt E7CCA2). The test can be described thus: Competitive fluorescence binding assay with 1-NPN probe, OfurPBP4. The note with it: pH 7.4; for IC50 / Ki: OfurPBP4, mean ± SE, dash = undetectable interaction; for IC50: displacement of 1-NPN. Here is the method: (§1) The 1-NPN probe was excited at 337 nm, and emission spectra were recorded between 380 and 450 nm on a Shimadzu fluorescence spectrophotometer (Shimadzu, Japan). Each trial was run in triplicate, and Scatchard plots of the ratio of bound to unbound ligand were created using Microsoft Excel 2010. Competitive binding assays were performed with each of the OfurPBPs using 1-NPN as the probe. Assay reactions were comprised of 2 µM of each OfurPBP diluted individually in 2.0 ml 20 mM Tris–HCl, pH 7.4, which were then titrated with 1.0 mM increments sex pheromone diluted in methanol to a final concentrations of 1–6 µM. The synthetic standards that correspond to the sex pheromones of O. furnacalis, O. nubilalis and other lepidopteran species were purchased from Sigma-Aldrich (Shanghai, China; Additional file 2: S2). Excitation and emission spectra were recorded from triplicate assays as described above. The binding affinity of each purified OfurPBP to the different sex pheromones was measured by calculation of binding constants via competitive fluorescence-binding assay. In brief, relative fluorescent intensities were analyzed by GraphPad Prism 5 software (GraphPad Software Inc, La Jolla, CA) and calculation was done using the equation: Ki = [IC50]/(1 + [1-NPN]/K1-NPN), where [1-NPN] is the free concentration of 1-NPN and K1-NPN is the dissociation constant of the complex protein/1-NPN [19, 20]. Sex pheromone binding affinity with different PBPs was analyzed using One-way ANOVA in SAS 8.0 (SAS Institute Inc., Cary, NC, USA).

In another test the target is recombinant OfurPBP3 (Ostrinia furnacalis, UniProt E7CCA1). Nature of the test: Competitive fluorescence binding assay with 1-NPN probe, OfurPBP3 wild type. The note with it: pH 7.4; for IC50 / Ki: OfurPBP3 wild type, mean ± SE, dash = undetectable interaction; for IC50: displacement of 1-NPN. The procedure: as §1
The target in another test is OfurPBP3 mutant M3: I52N (Ostrinia furnacalis, UniProt E7CCA1, I74N). Nature of the test: Competitive binding assay, OfurPBP3 mutant M3 I52N. Here is the method:
as §1
(§2) Four amino acids of OfurPBP3 with some of the most negative estimated E total values were mutated using Quick-change lightning site-directed mutagenesis kit (Stratagene, La Jolla, CA, USA); Ile to Asn at position 113 ([…]), m2 Phe to Ser at position 12 (F12S), m3 Ile to Asn at position 52 (I52N), and m4 […] to Arg at position 94 (I94R). The sequence of each primers used to alter the aforementioned sites by nucleotide mismatch are shown in Additional file 3: S3. After initial denaturation at 94 °C for 5 min, the subsequent PCR followed with 30 cycles of 94 °C for 30 s, 56 °C for 30 s, and final extension at 72 °C for 1 min. Changes within site-directed mutant fragments were verified by cloning into the pGEM-T Easy vector (Promega) by Sanger sequencing. All mutated OfurPBPs proteins were expressed and used within in vitro binding assays as described above.

A further test has as its target recombinant OfurPBP2 (Ostrinia furnacalis, UniProt E7CCA0). Nature of the test: Competitive fluorescence binding assay with 1-NPN probe, OfurPBP2. The note with it: dash = undetectable interaction; for IC50: pH 7.4, displacement of 1-NPN, mean ± SE; for Ki: pH 7.4, mean ± SE. Here is the method: as §1
A further test concerns the target OfurPBP3 mutant M4: I94R (Ostrinia furnacalis, UniProt E7CCA1, L116R). The test can be described thus: Competitive binding assay, OfurPBP3 mutant M4 I94R. The procedure: as §1, §2
Test [1] concerns the target OfurPBP3 mutant M1: I113N (Ostrinia furnacalis, UniProt E7CCA1, I135N). Nature of the test: Competitive binding assay, OfurPBP3 mutant M1 I113N. The conditions noted are these: for fold reduction in affinity compared to wild-type OfurPBP3: mutant I113N vs wildtype. The procedure: as §1, §2
A further test deals with recombinant OfurPBP1 (Ostrinia furnacalis, UniProt E7CC99). Nature of the test: Competitive fluorescence binding assay with 1-NPN probe, OfurPBP1. The note with it: mean ± SE, dash = undetectable interaction; for Ki: pH 7.4, Ki = [IC50]/(1 + [1-NPN]/K1-NPN); for IC50: pH 7.4, displacement of 1-NPN. Here is the method: as §1
The next test deals with recombinant OfurPBP5 (Ostrinia furnacalis, UniProt E7CCA3). Nature of the test: Competitive fluorescence binding assay with 1-NPN probe, OfurPBP5. The conditions noted are these: pH 7.4; for IC50 / Ki: OfurPBP5, mean ± SE, dash = undetectable interaction; for IC50: displacement of 1-NPN. Here is the method:
as §1

For a further test, the target named is OfurPBP3 mutant M2: F12S (Ostrinia furnacalis, UniProt E7CCA1, F34S). The test can be described thus: Competitive binding assay, OfurPBP3 mutant M2 F12S. The procedure: as §1, §2
For test [2], the system named is OfurPBP3 mutants F12S, I52N, I94R, and I113N. The test can be described thus: Competitive binding assay, statements on all OfurPBP3 mutants together. Also noted: species or system Ostrinia furnacalis. The conditions noted are these: for fold reduction in OfurPBP3 affinity caused by Ser12, Asn52, Arg94, Asn113 variants: range over the four mutants vs wild type; for binding to all mutated OfurPBPs (in words): pH 7.4. Here is the method:
as §1, §2

The test system of test [3] is OfurPBP1, OfurPBP2, OfurPBP3, OfurPBP4 and OfurPBP5. Nature of the test: Competitive binding assay, statements on all five OfurPBPs together. The conditions noted are these: pH 7.4. Also noted: species or system Ostrinia furnacalis. Here is the method: as §1
The target in a further test is PBPLma. Also noted: method as in PMID 12529170. The conditions noted are these: read-out: binding affinities; cited from earlier work.

Where “and” joins values, the source holds several entries; their conditions need not be identical. Equal entries are not always repeated. Entries after “also recorded” stand apart in the source; their conditions may differ.

In general, IC50 refers to the concentration that gives 50% inhibition. As usually defined, the Ki is the dissociation constant of the complex between target and ligand, obtained from inhibition or displacement.

recombinant OfurPBP2, sequence (E7CCA0 entry or part of it): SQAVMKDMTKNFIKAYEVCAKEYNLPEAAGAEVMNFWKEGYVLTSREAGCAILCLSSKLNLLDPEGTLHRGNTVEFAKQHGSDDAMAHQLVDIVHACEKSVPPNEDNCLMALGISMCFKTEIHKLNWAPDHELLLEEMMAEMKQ
recombinant OfurPBP3, sequence (E7CCA1 entry or part of it): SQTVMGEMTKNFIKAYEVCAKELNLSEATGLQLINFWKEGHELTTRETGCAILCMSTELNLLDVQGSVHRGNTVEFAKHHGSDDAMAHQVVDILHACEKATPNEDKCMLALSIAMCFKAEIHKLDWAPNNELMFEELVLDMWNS
recombinant OfurPBP4, sequence (E7CCA2 entry or part of it): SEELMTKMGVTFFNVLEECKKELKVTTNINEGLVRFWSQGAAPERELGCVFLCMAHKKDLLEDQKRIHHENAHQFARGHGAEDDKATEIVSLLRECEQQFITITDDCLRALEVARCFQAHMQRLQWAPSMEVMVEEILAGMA
OfurPBP3 mutant M4: I94R, sequence (E7CCA1 entry or part of it L116R): as the sequence (E7CCA1 entry or part of it) above, with L94R counted along it
OfurPBP3 mutant M3: I52N, sequence (E7CCA1 entry or part of it I74N): as the sequence (E7CCA1 entry or part of it) above, with I52N counted along it
OfurPBP3 mutant M1: I113N, sequence (E7CCA1 entry or part of it I135N): as the sequence (E7CCA1 entry or part of it) above, with I113N counted along it
OfurPBP3 mutant M2: F12S, sequence (E7CCA1 entry or part of it F34S): as the sequence (E7CCA1 entry or part of it) above, with F12S counted along it
recombinant OfurPBP1, sequence (E7CC99 entry or part of it): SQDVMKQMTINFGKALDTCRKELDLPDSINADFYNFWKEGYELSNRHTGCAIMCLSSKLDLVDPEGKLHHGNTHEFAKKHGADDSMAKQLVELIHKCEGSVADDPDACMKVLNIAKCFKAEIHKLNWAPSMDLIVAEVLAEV
recombinant OfurPBP5, sequence (E7CCA3 entry or part of it): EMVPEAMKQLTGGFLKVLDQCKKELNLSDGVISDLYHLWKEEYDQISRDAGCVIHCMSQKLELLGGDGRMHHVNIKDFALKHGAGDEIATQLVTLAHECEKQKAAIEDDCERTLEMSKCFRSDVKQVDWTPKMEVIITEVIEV

As to `C/C=C/CCCCCCCCCCCOC(C)=O` [E12-14:OAc, (E)-12-Tetradecenyl acetate], the IC50 on recombinant OfurPBP4 was over 6 µM; on recombinant OfurPBP3 it was 3.81 ± 0.02 µM; at OfurPBP3 mutant M3: I52N, over 6 µM; on recombinant OfurPBP2, 4.88 ± 0.1 µM; at OfurPBP3 mutant M4: I94R, over 6 µM; in test [1], over 6 µM. Also, the IC50 was 5.77 ± 0.16 µM on recombinant OfurPBP1, over 6 µM on recombinant OfurPBP5 and over 6 µM at OfurPBP3 mutant M2: F12S. Also, the inhibition constant (Ki) on recombinant OfurPBP4 is over 6 µM; on recombinant OfurPBP3 it was 2.85 µM and 2.84 µM; on recombinant OfurPBP2 it was 4.12 ± 0.08 µM; on recombinant OfurPBP1 it was 5.01 ± 0.14 µM. Further, the “binding to OfurPBP4 (in words)” value at recombinant OfurPBP4 is listed as “incapable of binding; also recorded: no detectable binding”. Besides, the “fold reduction in OfurPBP3 affinity caused by Ser12, Asn52, Arg94, Asn113 variants” value in [2] is 1.7- to 4.6 fold.

Regarding `CC/C=C\CCCCCCCCCCOC(C)=O` [Z11-14:OAc, (Z)-11-Tetradecenyl acetate], the IC50 is 1.18 ± 0.05 µM on recombinant OfurPBP4; 3.27 ± 0.24 µM at recombinant OfurPBP3; over 6 µM on OfurPBP3 mutant M3: I52N; 3.49 ± 0.06 µM on recombinant OfurPBP2; over 6 µM at OfurPBP3 mutant M4: I94R; over 6 µM in test [1]. Further, the IC50 at recombinant OfurPBP1 is 4.69 ± 0.14 µM; at recombinant OfurPBP5 it was 3.64 ± 0.28 µM; at OfurPBP3 mutant M2: F12S it was over 6 µM. In addition, the Ki on recombinant OfurPBP4 came to 1.09 ± 0.05 µM; at recombinant OfurPBP3 it was 2.44 ± 0.18 µM; at recombinant OfurPBP2, 2.95 ± 0.05 µM; at recombinant OfurPBP1, 4.08 ± 0.12 µM; at recombinant OfurPBP5, 2.18 ± 0.17 µM. In addition, in test [3], the “binding to all five OfurPBPs (in words)” value is recorded as “relatively high affinities”. Besides, the “fold reduction in affinity compared to wild-type OfurPBP3” value in test [1] is listed as about 8.25 fold.

Take `CC/C=C/CCCCCCCCCCO` [E11-14:OH, (E)-11-Tetradecenol]: the IC50 (at recombinant OfurPBP4; at recombinant OfurPBP3; at OfurPBP3 mutant M3: I52N; on recombinant OfurPBP2; on OfurPBP3 mutant M4: I94R; in [1]) was over 6 µM each time. The IC50 at recombinant OfurPBP1, at recombinant OfurPBP5 and at OfurPBP3 mutant M2: F12S was over 6 µM throughout. For the same compound, the inhibition constant (Ki) at recombinant OfurPBP4, on recombinant OfurPBP3, on recombinant OfurPBP1 and at recombinant OfurPBP5 was over 6 µM each time. In addition, the “binding to all five OfurPBPs (in words)” value in [3] is listed as “weak or lack of detectable binding”. Further, the “binding to wildtype OfurPBP3 (in words)” value at recombinant OfurPBP3 is “failed to demonstrate this function”. The “binding to all mutated OfurPBPs (in words)” value in test [2] is “weak binding affinity”.

For the compound `CC(O)C(C)O` (centres unmarked) [butane-2,3-diol], the Kd at PBPLma was 2.5 µM.

For `CC/C=C/CCCCCCCCCCOC(C)=O` [E11-14:OAc, (E)-11-Tetradecenyl acetate], the 50% inhibitory concentration (IC50) on recombinant OfurPBP4 was 2.31 ± 0.57 µM; at recombinant OfurPBP3, 2.64 ± 0.15 µM; on OfurPBP3 mutant M3: I52N it was over 6 µM; on recombinant OfurPBP2, 3.28 ± 0.01 µM; at OfurPBP3 mutant M4: I94R, over 6 µM; in test [1], over 6 µM. Besides, the results for the IC50 at recombinant OfurPBP1, at recombinant OfurPBP5 and on OfurPBP3 mutant M2: F12S were 5.3 ± 0.02 µM, 1.9 ± 0.07 µM and over 6 µM, respectively. The Ki at recombinant OfurPBP4 turned out to be 2.13 ± 0.53 µM; on recombinant OfurPBP3, 1.97 ± 0.11 µM; on recombinant OfurPBP2, 2.77 ± 0.01 µM; at recombinant OfurPBP1 it was 4.61 ± 0.02 µM; on recombinant OfurPBP5, 1.14 ± 0.04 µM. In test [3], the “binding to all five OfurPBPs (in words)” value is recorded as “relatively high affinities”.

As to `C/C=C\CCCCCCCCCCCOC(C)=O` [Z12-14:OAc, (Z)-12-Tetradecenyl acetate], the IC50 was over 6 µM on recombinant OfurPBP4; 3.83 ± 0.06 µM at recombinant OfurPBP3; over 6 µM at OfurPBP3 mutant M3: I52N; 4.96 ± 0.23 µM on recombinant OfurPBP2; over 6 µM on OfurPBP3 mutant M4: I94R; over 6 µM in [1]. Also, the IC50 on recombinant OfurPBP1 was 4.88 ± 0.94 µM; at recombinant OfurPBP5, over 6 µM; on OfurPBP3 mutant M2: F12S, over 6 µM. In addition, the figures for the inhibition constant Ki at recombinant OfurPBP3, on recombinant OfurPBP2 and on recombinant OfurPBP1 were 2.86 ± 0.04 µM, 4.19 ± 0.09 µM and 4.24 ± 0.82 µM, respectively. The “fold reduction in affinity compared to wild-type OfurPBP3” value (in test [1]; on OfurPBP3 mutant M2: F12S (mutant F12S vs wildtype)) was ~ 2 fold in each case. In addition, the “binding to OfurPBP5 (in words)” value on recombinant OfurPBP5 is reported as “weakly”. Also, in test [2], the “fold reduction in OfurPBP3 affinity caused by Ser12, Asn52, Arg94, Asn113 variants” value is 1.7- to 4.6 fold.

As for `CCCC/C=C\CCCCCCCCO` [Z9-14:OH, (Z)-9-Tetradecenol], the IC50 (on recombinant OfurPBP4; on recombinant OfurPBP3; on OfurPBP3 mutant M3: I52N; at recombinant OfurPBP2; at OfurPBP3 mutant M4: I94R; in [1]) was over 6 µM each time. For the same compound, the IC50 at recombinant OfurPBP1, at recombinant OfurPBP5 and at OfurPBP3 mutant M2: F12S was over 6 µM in each case. The Ki on recombinant OfurPBP4, on recombinant OfurPBP3, at recombinant OfurPBP2, at recombinant OfurPBP1 and on recombinant OfurPBP5 was over 6 µM in each case. The “binding to all five OfurPBPs (in words)” value in test [3] was “weak or lack of detectable binding”. On recombinant OfurPBP3, the “binding to wildtype OfurPBP3 (in words)” value was “failed to demonstrate this function”. In addition, the “binding to I113N (in words)” value in test [1] (pH 7.4) is listed as “ability to bind”. Also, in test [2], the “binding to all mutated OfurPBPs (in words)” value is given as “weak binding affinity”.

Consider `CC(=O)C(C)O` (centres unmarked) [3-hydroxy-butan-2-on], for which, on PBPLma, the Kd is 3.8 µM.
